The source of these data is patent US20250002458A1, “SALT FORMS OF […]” (UNICYCIVE THERAPEUTICS INC., priority 2023, published 2025).

Series [1] in a line: Stability of select salts of Compound 1 at 5, 25 and 40° C. over 6 months, purity by HPLC. It counts as physicochemical. Here is the method:
A description of the salt and the purity as determined by HPLC are provided initially and at the 1st, 2nd, 3rd, and 6th month for each salt.
Preparation of test solution: About 50.0 mg of test sample was weighed into a 25 mL of volumetric flask and diluent (10 mL) was added. The mixture was sonicated to dissolve sample and diluted up to mark with diluent and mixed well.

The nature of series [2]: Photostability of iodide and nitrate salts (control, UV, visible). It counts as physicochemical. The following applies: for Total impurities: photostability. On the procedure:
The photostability of Compound 1 iodide salt and Compound 1 nitrate salt were tested.
The photostability of Compound 2 iodide salt and Compound 2 nitrate salt were tested.

Where a name gives a salt, the structure may show the parent alone.

Turning to `C[C@H](NC(=O)OC[n+]1cccc(C(=O)NCCO[N+](=O)[O-])c1)C1CCCCC1` [Compound 1 Esylate Salt], the Purity worked out at 92.7 in series [1] (5° C., 1st Month); 92.3 in series [1] (5° C., 2nd Month); 91.5 in series [1] (5° C., 3rd Month); 89.6 in series [1] (5° C., 6th Month); 95.4 in series [1] (5° C., Initial); 91.4 in series [1] (25° C., 1st Month). For the same compound, the Purity in series [1] (25° C., 2nd Month) is 84.4; in series [1] (25° C., 3rd Month), 73.9; in series [1] (25° C., 6th Month), 58.7; in series [1] (25° C., Initial) it was 95.4.
As to `C[C@H](NC(=O)OC[n+]1cccc(C(=O)NCCO[N+](=O)[O-])c1)C1CCCCC1` [Compound 1 Triflate Salt], the Purity was found to be 95.0 in series [1] (5° C., 1st Month); 95.0 in series [1] (5° C., 2nd Month); 94.8 in series [1] (5° C., 3rd Month); 96.1 in series [1] (5° C., 6th Month); 96.6 in series [1] (5° C., Initial); 94.4 in series [1] (25° C., 1st Month). Moreover, the Purity was 91.1 in series [1] (25° C., 2nd Month); 85.8 in series [1] (25° C., 3rd Month); 78.5 in series [1] (25° C., 6th Month); 96.6 in series [1] (25° C., Initial).
Regarding `C[C@H](NC(=O)OC[n+]1cccc(C(=O)NCCO[N+](=O)[O-])c1)C1CCCCC1` [Compound 1 Perchlorate Salt], the Purity was determined as 96.3 in series [1] (5° C., 1st Month); 93.0 in series [1] (5° C., 2nd Month); 95.7 in series [1] (5° C., 3rd Month); 94.8 in series [1] (5° C., 6th Month); 97.6 in series [1] (5° C., Initial); 95.4 in series [1] (25° C., 1st Month). Moreover, the Purity in series [1] (25° C., 2nd Month) is 89.4; in series [1] (25° C., 3rd Month) it was 84.9; in series [1] (25° C., 6th Month), 74.8; in series [1] (25° C., Initial), 97.6.
Consider `C[C@H](NC(=O)OC[n+]1cccc(C(=O)NCCO[N+](=O)[O-])c1)C1CCCCC1` [Compound 1 nitrate salt], for which, in series [2] (exposed to both UV and visible light), the “Total impurities compared with the iodide salt” value was “less than the impurities in Compound 1 iodide salt”. Moreover, the values for the Total impurities in series [2] (UV), in series [2] (Visible) and in series [2] (control sample) were 0.21, 0.16 and 0.06, respectively.
`C[C@H](NC(=O)OC[n+]1cccc(C(=O)NCCO[N+](=O)[O-])c1)C1CCCCC1` [Compound 1 Phosphate Salt]: the Purity in series [1] (5° C., 1st Month) stood at 95.8; in series [1] (5° C., 2nd Month), 93.8; in series [1] (5° C., 3rd Month), 94.6; in series [1] (5° C., 6th Month), 94.5; in series [1] (5° C., Initial), 96.5; in series [1] (25° C., 1st Month) it was 93.3. Moreover, the Purity in series [1] (25° C., 2nd Month) came to 83.7; in series [1] (25° C., 3rd Month) it was 78.2; in series [1] (25° C., 6th Month), 69.4; in series [1] (25° C., Initial) it was 96.5; in series [1] (40° C., 1st Month), 91.4; in series [1] (40° C., 2nd Month), 63.1. Further, the Purity is listed as 50.9 in series [1] (40° C., 3rd Month); 50.5 in series [1] (40° C., 6th Month); 96.5 in series [1] (40° C., Initial).
For `C[C@H](NC(=O)OC[n+]1cccc(C(=O)NCCO[N+](=O)[O-])c1)C1CCCCC1` [Compound 1 iodide salt], the Total impurities in series [2] (UV) worked out at 0.27; in series [2] (Visible), 0.60; in series [2] (control sample) it was 0.07.
Take `C[C@H](NC(=O)OC[n+]1cccc(C(=O)NCCO[N+](=O)[O-])c1)C1CCCCC1` [Compound 1 4-Bromobesylate Salt]: the Purity was 91.0 in series [1] (5° C., 1st Month); 93.1 in series [1] (5° C., 2nd Month); 89.6 in series [1] (5° C., 3rd Month); 86.6 in series [1] (5° C., 6th Month); 98.4 in series [1] (5° C., Initial); 89.0 in series [1] (25° C., 1st Month). The Purity in series [1] (25° C., 2nd Month) was 84.2; in series [1] (25° C., 3rd Month) it was 76.8; in series [1] (25° C., 6th Month), 67.6; in series [1] (25° C., Initial) it was 98.4.
`C[C@H](NC(=O)OC[n+]1cccc(C(=O)NCCO[N+](=O)[O-])c1)C1CCCCC1` [Compound 1 4-Nitrobesylate Salt]: the Purity in series [1] (5° C., 1st Month) was found to be 98.1; in series [1] (5° C., 2nd Month), 98.1; in series [1] (5° C., 3rd Month), 97.8; in series [1] (5° C., 6th Month) it was 97.9; in series [1] (5° C., Initial), 98.1; in series [1] (25° C., 1st Month), 97.2. The Purity in series [1] (25° C., 2nd Month) was 93.1; in series [1] (25° C., 3rd Month), 86.8; in series [1] (25° C., 6th Month), 80.3; in series [1] (25° C., Initial), 98.1.
With `C[C@H](NC(=O)OC[n+]1cccc(C(=O)NCCO[N+](=O)[O-])c1)C1CCCCC1` [Compound 1 Sulphate Salt], the Purity in series [1] (5° C., 1st Month) amounted to 90.7; in series [1] (5° C., 2nd Month) it was 87.9; in series [1] (5° C., 3rd Month) it was 91.1; in series [1] (5° C., 6th Month) it was 90.9; in series [1] (5° C., Initial), 94.7; in series [1] (25° C., 1st Month), 90.0. For the same compound, the Purity is 56.9 in series [1] (25° C., 2nd Month); 33.7 in series [1] (25° C., 3rd Month); 23.5 in series [1] (25° C., 6th Month); 94.7 in series [1] (25° C., Initial); 75.6 in series [1] (40° C., 1st Month); 8.3 in series [1] (40° C., 2nd Month). For the same compound, the Purity in series [1] (40° C., 3rd Month) is 0.9; in series [1] (40° C., 6th Month), 1.5; in series [1] (40° C., Initial) it was 94.7.
In the case of `C[C@H](NC(=O)OC[n+]1cccc(C(=O)NCCO[N+](=O)[O-])c1)C1CCCCC1` [Compound 1 Trifluoroacetate Salt], the Purity was determined as 97.2 in series [1] (5° C., 1st Month); 96.6 in series [1] (5° C., 2nd Month); 97.0 in series [1] (5° C., 3rd Month); 97.2 in series [1] (5° C., 6th Month); 98.6 in series [1] (5° C., Initial); 96.5 in series [1] (25° C., 1st Month). In addition, the Purity in series [1] (25° C., 2nd Month) amounted to 94.6; in series [1] (25° C., 3rd Month), 92.2; in series [1] (25° C., 6th Month), 85.9; in series [1] (25° C., Initial), 98.6.
On to `C[C@H](NC(=O)OC[n+]1cccc(C(=O)NCCO[N+](=O)[O-])c1)C1CCCCC1` [Compound 1 Besylate Salt], for which the Purity came to 88.8 in series [1] (5° C., 1st Month); 88.6 in series [1] (5° C., 2nd Month); 87.5 in series [1] (5° C., 3rd Month); 86.9 in series [1] (5° C., 6th Month); 96.6 in series [1] (5° C., Initial); 87.1 in series [1] (25° C., 1st Month). The Purity in series [1] (25° C., 2nd Month) worked out at 79.3; in series [1] (25° C., 3rd Month), 66.7; in series [1] (25° C., 6th Month), 51.2; in series [1] (25° C., Initial), 96.6.
